According to ChEMBL document CHEMBL3400015, “Tertiary amides of Salinomycin: A new group of antibacterial agents against Bacillus anthracis and methicillin-resistant Staphylococcus epidermidis” (Bioorg Med Chem Lett, 2015):
≈ marks a conversion by molar mass, not a printed value.

Assays:
[1] = system: Staphylococcus epidermidis; assay: Antimicrobial activity against methicillin-resistant Staphylococcus epidermidis isolate 459/11 after 18 hrs by twofold serial broth dilution method; assay type: functional; settings: isolate 459/11, 18 h
Pseudomonas aeruginosa [2] = assay: Antimicrobial activity against Pseudomonas aeruginosa ATCC 27853 after 18 hrs by twofold serial broth dilution method; assay type: functional; settings: ATCC 27853, 18 h
Staphylococcus aureus [3] = assay: Bactericidal activity against Staphylococcus aureus […] after 24 hrs; assay type: functional; settings: read-out: MBC99.9
[4] = system: Staphylococcus epidermidis; assay: Antimicrobial activity against methicillin-resistant Staphylococcus epidermidis isolate 469/11 after 18 hrs by twofold serial broth dilution method; assay type: functional; settings: isolate 469/11, 18 h
[5] = system: Staphylococcus epidermidis; assay: Antimicrobial activity against methicillin-resistant Staphylococcus epidermidis isolate 407/10 after 18 hrs by twofold serial broth dilution method; assay type: functional; settings: isolate 407/10, 18 h
[6] = system: Staphylococcus epidermidis; assay: Bactericidal activity against methicillin-resistant Staphylococcus epidermidis isolate 454/11 after 24 hrs; assay type: functional; settings: isolate 454/11, 24 h, read-out: MBC99.9
[7] = system: Staphylococcus epidermidis; assay: Bactericidal activity against methicillin-resistant Staphylococcus epidermidis isolate 458/11 after 24 hrs; assay type: functional; settings: isolate 458/11, 24 h, read-out: MBC99.9
[8] = system: Staphylococcus epidermidis; assay: Bactericidal activity against methicillin-resistant Staphylococcus epidermidis isolate 407/10 after 24 hrs; assay type: functional; settings: isolate 407/10, 24 h, read-out: MBC99.9
[9] = system: Staphylococcus epidermidis; assay: Bactericidal activity against methicillin-resistant Staphylococcus epidermidis isolate 470/11 after 24 hrs; assay type: functional; settings: isolate 470/11, 24 h, read-out: MBC99.9
Escherichia coli [10] = assay: Antimicrobial activity against Escherichia coli ATCC 25922 after 18 hrs by twofold serial broth dilution method; assay type: functional; settings: ATCC 25922, 18 h
[11] = system: Staphylococcus epidermidis; assay: Antimicrobial activity against methicillin-resistant Staphylococcus epidermidis isolate 424/10 after 18 hrs by twofold serial broth dilution method; assay type: functional; settings: isolate 424/10, 18 h
[12] = system: Staphylococcus epidermidis; assay: Antimicrobial activity against Staphylococcus epidermidis ATCC 35984 after 18 hrs by twofold serial broth dilution method; assay type: functional; settings: ATCC 35984, 18 h
[13] = system: Staphylococcus epidermidis; assay: Bactericidal activity against methicillin-resistant Staphylococcus epidermidis isolate 409/10 after 24 hrs; assay type: functional; settings: isolate 409/10, 24 h, read-out: MBC99.9
[14] = system: Staphylococcus epidermidis; assay: Antimicrobial activity against methicillin-resistant Staphylococcus epidermidis isolate 457/11 after 18 hrs by twofold serial broth dilution method; assay type: functional; settings: isolate 457/11, 18 h
[15] = system: Staphylococcus epidermidis; assay: Antimicrobial activity against methicillin-resistant Staphylococcus epidermidis isolate 454/11 after 18 hrs by twofold serial broth dilution method; assay type: functional; settings: isolate 454/11, 18 h
Escherichia coli [16] = assay: Bactericidal activity against Escherichia coli ATCC 10538 after 24 hrs; assay type: functional; settings: ATCC 10538, 24 h, read-out: MBC99.9
[17] = system: Staphylococcus epidermidis; assay: Bactericidal activity against methicillin-resistant Staphylococcus epidermidis isolate 403/10 after 24 hrs; assay type: functional; settings: isolate 403/10, 24 h, read-out: MBC99.9
Pseudomonas aeruginosa [18] = assay: Bactericidal activity against Pseudomonas aeruginosa ATCC 15442 after 24 hrs; assay type: functional; settings: ATCC 15442, 24 h, read-out: MBC99.9
Pseudomonas aeruginosa [19] = assay: Antimicrobial activity against Pseudomonas aeruginosa NCTC 6749 after 18 hrs by twofold serial broth dilution method; assay type: functional; settings: NCTC 6749, 18 h
[20] = system: Staphylococcus epidermidis; assay: Bactericidal activity against methicillin-resistant Staphylococcus epidermidis isolate 459/11 after 24 hrs; assay type: functional; settings: isolate 459/11, 24 h, read-out: MBC99.9
Pseudomonas aeruginosa [21] = assay: Bactericidal activity against Pseudomonas aeruginosa NCTC 6749 after 24 hrs; assay type: functional; settings: NCTC 6749, 24 h, read-out: MBC99.9
[22] = system: Staphylococcus epidermidis; assay: Bactericidal activity against methicillin-resistant Staphylococcus epidermidis isolate 424/10 after 24 hrs; assay type: functional; settings: isolate 424/10, 24 h, read-out: MBC99.9
Staphylococcus aureus [23] = assay: Antimicrobial activity against Staphylococcus aureus ATCC 25923 after 18 hrs by twofold serial broth dilution method; assay type: functional; settings: ATCC 25923, 18 h
[24] = system: Staphylococcus epidermidis; assay: Antimicrobial activity against methicillin-resistant Staphylococcus epidermidis isolate 460/11 after 18 hrs by twofold serial broth dilution method; assay type: functional; settings: isolate 460/11, 18 h
Escherichia coli [25] = assay: Antimicrobial activity against Escherichia coli NCTC 8196 after 18 hrs by twofold serial broth dilution method; assay type: functional; settings: NCTC 8196, 18 h
Staphylococcus aureus [26] = assay: Antimicrobial activity against Staphylococcus aureus […] after 18 hrs by twofold serial broth dilution method; assay type: functional
[27] = system: Staphylococcus epidermidis; assay: Antimicrobial activity against methicillin-resistant Staphylococcus epidermidis isolate 422/10 after 18 hrs by twofold serial broth dilution method; assay type: functional; settings: isolate 422/10, 18 h
Staphylococcus aureus [28] = assay: Bactericidal activity against Staphylococcus aureus ATCC 6538 after 24 hrs; assay type: functional; settings: ATCC 6538, 24 h, read-out: MBC99.9
Staphylococcus aureus [29] = assay: Bactericidal activity against Staphylococcus aureus NCTC 4163 after 24 hrs; assay type: functional; settings: NCTC 4163, 24 h, read-out: MBC99.9
[30] = system: Staphylococcus epidermidis; assay: Bactericidal activity against methicillin-resistant Staphylococcus epidermidis isolate 455/11 after 24 hrs; assay type: functional; settings: isolate 455/11, 24 h, read-out: MBC99.9
Bacillus anthracis = assay: Antimicrobial activity against Bacillus anthracis 34F2 after 18 hrs by twofold serial broth dilution method; assay type: functional; settings: 34F2, 18 h
[31] = system: Staphylococcus epidermidis; assay: Antimicrobial activity against methicillin-resistant Staphylococcus epidermidis isolate 409/10 after 18 hrs by twofold serial broth dilution method; assay type: functional; settings: isolate 409/10, 18 h
Escherichia coli [32] = assay: Antimicrobial activity against Escherichia coli ATCC 10538 after 18 hrs by twofold serial broth dilution method; assay type: functional; settings: ATCC 10538, 18 h
Staphylococcus aureus [33] = assay: Antimicrobial activity against Staphylococcus aureus NCTC 4163 after 18 hrs by twofold serial broth dilution method; assay type: functional; settings: NCTC 4163, 18 h
Pseudomonas aeruginosa [34] = assay: Bactericidal activity against Pseudomonas aeruginosa ATCC 27853 after 24 hrs; assay type: functional; settings: ATCC 27853, 24 h, read-out: MBC99.9
[35] = system: Staphylococcus epidermidis; assay: Antimicrobial activity against methicillin-resistant Staphylococcus epidermidis isolate 458/11 after 18 hrs by twofold serial broth dilution method; assay type: functional; settings: isolate 458/11, 18 h
[36] = system: Staphylococcus epidermidis; assay: Antimicrobial activity against methicillin-resistant Staphylococcus epidermidis isolate 455/11 after 18 hrs by twofold serial broth dilution method; assay type: functional; settings: isolate 455/11, 18 h
[37] = system: Staphylococcus epidermidis; assay: Bactericidal activity against methicillin-resistant Staphylococcus epidermidis isolate 457/11 after 24 hrs; assay type: functional; settings: isolate 457/11, 24 h, read-out: MBC99.9
Staphylococcus aureus [38] = assay: Bactericidal activity against Staphylococcus aureus ATCC 25923 after 24 hrs; assay type: functional; settings: ATCC 25923, 24 h, read-out: MBC99.9
[39] = system: Staphylococcus epidermidis; assay: Bactericidal activity against Staphylococcus epidermidis ATCC 35984 after 24 hrs; assay type: functional; settings: ATCC 35984, 24 h, read-out: MBC99.9
Bacillus subtilis [40] = assay: Genotoxicity in rec-positive Bacillus subtilis H17 at 2 ug/9 mm disc after 24 hrs by disc diffusion method; assay type: toxicity, organism-based
[41] = system: Staphylococcus epidermidis; assay: Bactericidal activity against methicillin-resistant Staphylococcus epidermidis isolate 460/11 after 24 hrs; assay type: functional; settings: isolate 460/11, 24 h, read-out: MBC99.9
Bacillus subtilis [42] = assay: Genotoxicity in rec-negative Bacillus subtilis M45 at 2 ug/9 mm disc after 24 hrs by disc diffusion method; assay type: toxicity, organism-based

CCCCN(CCCC)C(=O)[C@H](CC)[C@H]1CC[C@H](C)[C@H]([C@@H](C)[C@H](O)[C@H](C)C(=O)[C@H](CC)[C@H]2O[C@]3(C=C[C@@H](O)[C@]4(CC[C@@](C)([C@H]5CC[C@](O)(CC)[C@H](C)O5)O4)O3)[C@H](C)C[C@@H]2C)O1
MIC [1]: 4 µg/mL (≈ 4.64 µM) | MIC (Pseudomonas aeruginosa [2]): > 256 µg/mL | MBC (Staphylococcus aureus [3]): > 256 µg/mL | MIC [4]: 8 µg/mL (≈ 9.28 µM) | MIC [5]: 8 µg/mL (≈ 9.28 µM) | MBC [6]: 128 µg/mL (≈ 148 µM) | MBC [7]: 256 µg/mL (≈ 297 µM) | MBC [8]: 256 µg/mL (≈ 297 µM) | MBC [9]: > 256 µg/mL | MIC (Escherichia coli [10]): > 256 µg/mL | MIC [11]: 8 µg/mL (≈ 9.28 µM) | MIC [12]: 8 µg/mL (≈ 9.28 µM) | MBC [13]: > 256 µg/mL | MIC [14]: 4 µg/mL (≈ 4.64 µM) | MIC [15]: 4 µg/mL (≈ 4.64 µM) | MBC (Escherichia coli [16]): > 256 µg/mL | MBC [17]: 256 µg/mL (≈ 297 µM) | MBC (Pseudomonas aeruginosa [18]): > 256 µg/mL | MIC (Pseudomonas aeruginosa [19]): > 256 µg/mL | MBC [20]: 256 µg/mL (≈ 297 µM) | MBC (Pseudomonas aeruginosa [21]): > 256 µg/mL | MBC [22]: 256 µg/mL (≈ 297 µM) | MIC (Staphylococcus aureus [23]): 8 µg/mL (≈ 9.28 µM) | MIC [24]: 8 µg/mL (≈ 9.28 µM) | MIC (Escherichia coli [25]): > 256 µg/mL | MIC (Staphylococcus aureus [26]): 8 µg/mL (≈ 9.28 µM) | MIC [27]: 8 µg/mL (≈ 9.28 µM) | MBC (Staphylococcus aureus [28]): 256 µg/mL (≈ 297 µM) | MBC (Staphylococcus aureus [29]): > 256 µg/mL | MBC [30]: 256 µg/mL (≈ 297 µM) | MIC (Bacillus anthracis): 64 µg/mL (≈ 74.2 µM) | MIC [31]: 16 µg/mL (≈ 18.6 µM) | MIC (Escherichia coli [32]): > 256 µg/mL | MIC (Staphylococcus aureus [33]): 8 µg/mL (≈ 9.28 µM) | MBC (Pseudomonas aeruginosa [34]): > 256 µg/mL | MIC [35]: 4 µg/mL (≈ 4.64 µM) | MIC [36]: 16 µg/mL (≈ 18.6 µM) | MBC [37]: 256 µg/mL (≈ 297 µM) | MBC (Staphylococcus aureus [38]): 256 µg/mL (≈ 297 µM) | MBC [39]: > 256 µg/mL | diameter of the inhibition zone (DIZ) (Bacillus subtilis [40]): 29 mm | MBC [41]: > 256 µg/mL | diameter of the inhibition zone (DIZ) (Bacillus subtilis [42]): 30 mm
